Where two headings read alike, the source gives them in different places.
Assays:
[1] = tested on: isolated rat bladder strips; design: method as in PMID 24213882; conditions: cited from earlier work
human β3-AR = human β3-AR (Homo sapiens, UniProt P13945); assay: cAMP accumulation in CHO-K1 cells expressing human β3-AR; conditions: for EC50: EC50 β3-AR; for β3-AR selectivity vs β1-AR / β3-AR selectivity vs β2-AR: comparison between EC50 values; for cAMP activity at Cmax,u / cAMP activity at Cmin,u: from dose-response curve, β3-AR cells TF 0.025 μg/well;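 as to all read-outs here: CHO-K1 cells transiently transfected with a β-AR expression plasmid, cAMP assayed roughly 24 h post-transfection, values derived from agonist concentration–response curves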
Experimental: (§1) Chinese hamster ovary (CHO)-K1 cells (DS Pharma Biomedical Co., Ltd., Osaka, Japan) were cultured in Ham’s F-12 medium containing 10% fetal bovine serum under 5% CO2 at 37°C. For cAMP assay, 2×10^5 cells/mL were inoculated onto a 96-well plate at 100 μL/well. […] The cells were cultured for about 24 h and used for β-AR transfection (see below). The DNA sequences encoding β1-AR (P08588.2), β2-AR (NP_000015.1), or β3-AR (NP_000016.1) were cloned into a pCI-Neo expression vector (Promega, WI, USA). CHO-K1 cells expressing β1-AR, β2-AR, or β3-AR were constructed by transfection with the appropriate plasmid DNA (β1-, β2-, or β3-AR) using Lipofectamine 2000 (Life Technologies Japan Ltd., Tokyo, Japan), according to the manufacturer’s instructions. […] Lipofectamine was diluted with Opti-MEM (0.5 μL Lipofectamine/25 μL Opti-MEM) and incubated for 5 min at room temperature. Solutions containing plasmid DNA and Lipofectamine, respectively, were mixed in equal amounts and incubated for 20 min at room temperature. […] The transfected CHO-K1 cells were then cultured for about 24 h and used for the following experiments. Similar experiments were performed after reducing the amounts of transfected plasmid DNA to 0.05 and 0.025 μg.
(§2) Cells that had been cultured for about 24 h after transfection were subjected to cAMP assay.
(§3) In the cAMP assay, the half-maximal effective concentration (EC50) value was calculated for each agonist based on its concentration–response curve using GraphPad Prism 6.0 nonlinear regression analysis.

human β2-AR = human β2-AR (Homo sapiens, UniProt P07550, E27Q/G16R); assay: cAMP accumulation in CHO-K1 cells expressing human β2-AR; conditions: for Intrinsic activity β2-AR: isoproterenol max = 1.00
Experimental: as §1, §2, §3

human β1-AR = molecular target: T1, human β1-AR (Homo sapiens, UniProt P08588); assay: cAMP accumulation in CHO-K1 cells expressing human β1-AR; type: cell-based;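 also: cells transiently transfected with a β1-AR expression plasmid, seeded in 96-well plates and assayed for cAMP about 24 h after transfection across agonist concentration–response curves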
T1 construct: expressed in transfected cells; host or cells: CHO-K1 cells, transient transfection with pCI-Neo plasmid (Lipofectamine 2000)
Experimental: as §1, §2, §3

β3-AR = conditions: recent study comparing vibegron and mirabegron; cited from earlier work
[2] = unbound plasma concentrations at once-daily 50 mg clinical dose; type: in vivo, human; conditions: for Cmax,u (unbound maximum plasma concentration): calculated from Cmax and plasma-protein-binding rate; for Cmin,u (unbound minimum plasma concentration): calculated from Cmin and plasma-protein-binding rate
[3] = therapeutic doses, clinical trials; cited from earlier work
[4] = 52-week, cited from earlier work
β2-AR = molecular target: β2-AR; design: method as in PMID 22430195; conditions: binding assays; read-out: inhibition constant (Ki) β2-AR; cited from earlier work
β1-AR = molecular target: β1-AR; design: method as in PMID 22430195; conditions: binding assays; read-out: inhibition constant (Ki) β1-AR; cited from earlier work
[5] = CHO-K1, TF 0.1 μg/well plasmid DNA, cAMP accumulation
[6] = TF 0.05 μg/well, isoproterenol max = 1.00
[7] = TF 0.1 μg/well, 347 fmol/mg, concentration producing 50% of the maximal response induced by isoproterenol
[8] = TF 0.1 μg/well, maximal response of isoproterenol = 1.00
[9] = EC50 β2-AR, CHO-K1, TF 0.1 μg/well plasmid DNA, cAMP accumulation
[10] = CHO-K1, TF 0.1 μg/well plasmid DNA, cAMP accumulation, read-out: EC50 β1-AR
[11] = TF 0.025 μg/well, isoproterenol max = 1.00
[12] = TF 0.025 μg/well, read-out: EC50 β1-AR
[13] = TF 0.05 μg/well, read-out: EC50 β1-AR

T1 sequence (P08588 whole entry): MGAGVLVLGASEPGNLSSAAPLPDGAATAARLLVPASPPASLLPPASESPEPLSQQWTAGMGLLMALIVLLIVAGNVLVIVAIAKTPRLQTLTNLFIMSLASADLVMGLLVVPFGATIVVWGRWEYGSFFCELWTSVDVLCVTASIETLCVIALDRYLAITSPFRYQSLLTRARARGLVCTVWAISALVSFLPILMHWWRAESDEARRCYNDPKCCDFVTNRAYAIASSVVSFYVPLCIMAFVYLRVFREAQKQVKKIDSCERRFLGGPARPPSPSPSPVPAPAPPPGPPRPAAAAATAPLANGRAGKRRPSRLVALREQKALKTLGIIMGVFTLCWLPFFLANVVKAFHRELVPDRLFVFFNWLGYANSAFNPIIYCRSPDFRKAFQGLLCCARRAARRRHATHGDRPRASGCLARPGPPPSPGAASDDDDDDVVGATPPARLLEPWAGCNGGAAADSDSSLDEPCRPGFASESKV
Sequence of human β3-AR (P13945 whole entry): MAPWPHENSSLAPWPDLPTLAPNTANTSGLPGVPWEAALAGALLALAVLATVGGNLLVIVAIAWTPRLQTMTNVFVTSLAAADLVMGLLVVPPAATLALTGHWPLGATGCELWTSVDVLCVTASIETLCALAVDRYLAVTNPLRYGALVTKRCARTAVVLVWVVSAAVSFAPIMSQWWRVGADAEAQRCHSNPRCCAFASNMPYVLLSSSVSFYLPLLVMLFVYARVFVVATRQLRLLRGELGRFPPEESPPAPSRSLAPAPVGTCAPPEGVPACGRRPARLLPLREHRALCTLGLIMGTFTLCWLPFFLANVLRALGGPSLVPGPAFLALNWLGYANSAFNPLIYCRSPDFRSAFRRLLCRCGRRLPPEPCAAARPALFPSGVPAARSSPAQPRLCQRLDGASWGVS

| EC50 (human β3-AR; [5]) [nM] | EC50 (human β3-AR; TF 0.025 μg/well) [nM] | EC50 (human β3-AR; TF 0.05 μg/well) [nM] | Iso50 (human β3-AR; TF 0.025 μg/well, 116 fmol/mg) [nM] | Iso50 (human β3-AR; TF 0.05 μg/well, 222 fmol/mg) [nM] | Intrinsic activity β3-AR (human β3-AR; [6]) | Iso50 (human β3-AR; [7]) [nM] | Intrinsic activity β3-AR (human β3-AR; [8]) | β3-AR selectivity vs β1-AR (human β3-AR; TF 0.1 μg/well) | β3-AR selectivity vs β2-AR (human β3-AR; TF 0.1 μg/well) | EC50 (human β2-AR; [9]) [nM] | EC50 (human β2-AR; EC50 β2-AR, TF 0.025 μg/well) [nM] | EC50 (human β2-AR; EC50 β2-AR, TF 0.05 μg/well) [nM] | Intrinsic activity β2-AR (human β2-AR; TF 0.05 μg/well) | EC50 (human β1-AR; [10]) [nM] | Intrinsic activity β1-AR (human β1-AR; [11]) | EC50 (human β1-AR; [12]) [nM] | Intrinsic activity β1-AR (human β1-AR; [6]) | EC50 (human β1-AR; [13]) [nM] | Intrinsic activity β1-AR (human β1-AR; [8]) | SMILES | also measured |
| --- | --- | --- | --- | --- | --- | --- | --- | --- | --- | --- | --- | --- | --- | --- | --- | --- | --- | --- | --- | --- | --- |
|  |  |  |  |  |  |  |  |  |  |  |  |  |  |  |  |  |  |  |  | CC(Cc1ccc(O)cc1)NCC(O)c1cc(O)cc(O)c1 (centres unmarked) [fenoterol] | attenuation of bladder relaxant effect after pretreatment, washout and fresh addition [1]: marked attenuation of the bladder relaxant effect |
| 27.6 ± 9.08 | 83.6 ± 29 | 85.1 ± 5.84 | 252 ± 78.4 | 119 ± 27.1 | (0.91 ± 0.10) | 31.0 ± 10.8 | (0.96 ± 0.03) | 21.3 | >362 | > 10000 | > 10000 | > 10000 | (0.20 ± 0.02) | 588 ± 105 | (0.25 ± 0.06) | > 10000 | (0.28 ± 0.04) | > 10000 | (0.60 ± 0.04) | O=C(O)c1cccc(-c2cccc(NCCNC[C@H](O)c3cccc(Cl)c3)c2)c1 [Solabegron, solabegron] | Iso50 (human β3-AR; TF 0.025 μg/well, 116 fmol/mg, listed as solabegron): 252 nM; Intrinsic activity β3-AR (human β3-AR; TF 0.05 μg/well, isoproterenol max = 1.00, listed as solabegron): 0.91; Intrinsic activity β3-AR (human β3-AR; TF 0.1 μg/well, maximal response of isoproterenol = 1.00, listed as solabegron): 0.96 |
| 1.26 ± 0.4 | 12.5 ± 2.41 | 3.83 ± 0.93 | 22.5 ± 14.5 | 3.74 ± 0.73 | (1.00 ± 0.03) | 1.26 ± 0.29 | (0.93 ± 0.05) | >7937 | >7937 | > 10000 | > 10000 | > 10000 | (0.09 ± 0.03) | > 10000 | (0.00 ± 0.00) | > 10000 | (0.02 ± 0.01) | > 10000 | (0.10 ± 0.01) | O=C(Nc1ccc(C[C@@H]2CC[C@H]([C@H](O)c3ccccc3)N2)cc1)[C@@H]1CCc2nccc(=O)n21 [Vibegron] | IA (Emax) (β3-AR): 99.2%; Cmax,u (unbound maximum plasma concentration) [2]: 56 nM; Cmin,u (unbound minimum plasma concentration) [2]: 14 nM; Iso50 (human β3-AR; TF 0.025 μg/well, 116 fmol/mg, listed as vibegron): 22.5 nM; Intrinsic activity β3-AR (human β3-AR; TF 0.05 μg/well, isoproterenol max = 1.00, listed as vibegron): 1.00; β3-AR selectivity, higher than for β1-ARs (human β3-AR; TF 0.1 μg/well): > 7937 fold; β3-AR selectivity, higher than for β2-ARs (human β3-AR; TF 0.1 μg/well): > 7937 fold; Intrinsic activity β3-AR (human β3-AR; TF 0.1 μg/well, maximal response of isoproterenol = 1.00, listed as vibegron): 0.93; cAMP activity at Cmax,u (human β3-AR): about 82%; cAMP activity at Cmin,u (human β3-AR): ~59%; EC50 (human β2-AR; EC50 in cells expressing β2-ARs, TF 0.1 μg/well): > 10000 nM; β2-AR agonist activity (human β2-AR; lowest β2-AR density 108 fmol/mg): no β2-AR agonist activity; incidence of increased blood pressure and hypertension [3]: does not affect the incidence of increased blood pressure and hypertension; attenuation of efficacy ([4]; 50 mg and 100 mg): not observed; vital signs (systolic blood pressure, diastolic blood pressure, and pulse) ([4]; supratherapeutic dose 100 mg): did not affect vital signs; EC50 (human β1-AR; TF 0.1 μg/well, read-out: EC50 in cells expressing β1-ARs): > 10000 nM; β1-AR agonist activity (human β1-AR; cells TF 0.05 μg/well (245 fmol/mg)): no β1-AR agonist activity |
| 80.8 ± 12.6 | 1520 ± 950 | 398 ± 104 | 943 ± 244 | 303 ± 60.7 | (1.00 ± 0.07) | 81.5 ± 15.4 | (0.99 ± 0.02) | >124 | 28.1 | 2270 ± 1340 | > 10000 | > 10000 | (0.32 ± 0.05) | > 10000 | (0.04 ± 0.01) | > 10000 | (0.11 ± 0.02) | > 10000 | (0.33 ± 0.03) | Cc1cc(OCC(=O)O)c(C)cc1CCN[C@@H](C)[C@H](O)c1ccc(O)cc1 [Ritobegron, ritobegron] | Iso50 (human β3-AR; TF 0.025 μg/well, 116 fmol/mg, listed as ritobegron): 943 nM; Intrinsic activity β3-AR (human β3-AR; TF 0.05 μg/well, isoproterenol max = 1.00, listed as ritobegron): 1.00; Intrinsic activity β3-AR (human β3-AR; TF 0.1 μg/well, maximal response of isoproterenol = 1.00, listed as ritobegron): 0.99 |
|  |  |  | 78.0 ± 10.9 | 37.9 ± 6.40 | (0.96 ± 0.02) | 11.8 ± 1.78 |  |  |  |  |  |  |  |  |  |  |  |  |  | CC(C)NC[C@H](O)c1ccc(O)c(O)c1 [Isoproterenol, (–)-isoprenaline (+)-bitartrate] |  |
| 1.15 ± 0.24 | 4.17 ± 0.89 | 2.81 ± 0.6 | 26.9 ± 7.51 | 4.45 ± 0.66 | (0.84 ± 0.04) | 1.32 ± 0.26 | (0.94 ± 0.02) | 517 | 496 | 570 ± 235 | > 10000 | > 10000 | (0.31 ± 0.05) | 594 ± 122 | (0.25 ± 0.03) | > 10000 | (0.38 ± 0.02) | > 10000 | (0.59 ± 0.02) | Nc1nc(CC(=O)Nc2ccc(CCNC[C@H](O)c3ccccc3)cc2)cs1 [Mirabegron, mirabegron] | attenuation of bladder relaxant effect after pretreatment, washout and fresh addition [1]: did not produce such attenuation; IA (Emax) (β3-AR): 80.4%; Cmax,u (unbound maximum plasma concentration) [2]: 20 nM; Cmin,u (unbound minimum plasma concentration) [2]: 3 nM; Iso50 (human β3-AR; TF 0.025 μg/well, 116 fmol/mg, listed as mirabegron): 26.9 nM; Intrinsic activity β3-AR (human β3-AR; TF 0.05 μg/well, isoproterenol max = 1.00, listed as mirabegron): 0.84; Intrinsic activity β3-AR (human β3-AR; TF 0.1 μg/well, maximal response of isoproterenol = 1.00, listed as mirabegron): 0.94; cAMP activity at Cmax,u (human β3-AR): about 53%; cAMP activity at Cmin,u (human β3-AR): about 27%; Ki (β2-AR): 977 nM; Ki (β1-AR): 383 nM |
